Experimental data published in patent publication US20250199015A1, “CYCLIN-DEPENDENT KINASE 2 INHIBITORS FOR MEDICAL TREATMENT” (INCYCLIX BIO, LLC, priority 2022, published 2025).

Legend:
OVCAR-3 cells [1] = assay: CellTiter Glo cell proliferation assay; format: cell-based, human; details: Homo sapiens, OVCAR-3, 144 h; six days
Experimental: Plates were returned to the incubator for six additional days. On day six post dosing, plates were removed and treated with CellTiter Glo reagent following manufacturer's specifications. Plates were incubated 45 minutes at room temperature and run on Biotek luminometer with 1 sec/well detection. Results were converted to Microsoft Excel and transferred to Graphpad Prism for analysis. […] These cell types are distinguished by either gained of cyclin E1 expression or activation (Kuramochi) or intrinsic amplification of cyclin E1 (OVCAR-3, COV318).
In a similar manner, OVCAR-3 cells were grown in RPMI-1640, 1× Glutamax, 10% FBS and 1×ITS at 37° C., 5% CO2. Cells were plated at 500 cells per well in white wall/clear bottom plates and incubated overnight. […] Plates returned to incubator for six additional days. On day six post dosing, plates were removed and treated with CellTiter Glo reagent following manufacturer's specifications. Plates were incubated 45 minutes at room temperature and run on Biotek luminometer with 1 sec/well detection. Results were converted to Microsoft Excel and transferred to GraphPad Prism for analysis.

H526 cells = assay: CellTiter Glo cell proliferation assay (single agent and chemotherapy combination); format: cell-based, human; details: Homo sapiens, NCI-H526, 144 h; six days
Experimental: Plates returned to incubator for six additional days. On day six post dosing, plates were removed and treated with CellTiter Glo reagent following manufacturer's specifications. Plates incubated 45 minutes at room temperature and run on a Biotek luminometer with 1 sec/well detection. Results were converted to Microsoft Excel and transferred to GraphPad Prism for analysis.
Cells were plated at 250 cells per well in white wall/clear bottom plates and incubated overnight. […] Plates returned to the incubator for six additional days. On day six post dosing, plates were removed and treated with CellTiter Glo reagent following manufacturer's specifications. Plates incubated 45 minutes at room temperature and run on a Biotek luminometer with 1 sec/well detection. Results were converted to Microsoft Excel and transferred to GraphPad Prism for analysis.
(§1) Dose curves ranged from 300 pM to 10 μM in triplicate and treatments lasted for 6 days. Plates were removed from incubator at each specified timepoint and treated with CellTiter-Glo (Promega, Inc) following manufacturer specifications. Plates were then read on CLARIOstar luminometer with 1 sec/well integration.
as §1, with “integration. Results were converted to Microsoft Excel and transferred to GraphPad Prism for Analysis.” for “integration.”

FUOV-1 cells = assay: CellTiter-Glo cell proliferation assay; format: cell-based; details: Homo sapiens, 144 h; 6 days; read-out: IC50 in FUOV1 cells
Experimental: The Kuramochi human ovarian carcinoma cell line was grown in RPMI-1640/1× Glutamax/10% fetal bovine serum and the FUOV-1 human ovarian carcinoma cell line was grown in DMEM/F12/1× Glutamax/10% fetal bovine serum and both were plated at 1,000 cells/well in Corning 96 well white wall/clear bottom tissue culture treated plates. […] Plates were removed from incubator at each specified timepoint and treated with CellTiter-Glo (Promega, Inc) following manufacturer specifications. Plates were then read on CLARIOstar luminometer with 1 sec/well integration. Results were converted to Microsoft Excel and transferred to GraphPad Prism for Analysis (FIG. 16A-B).

OVCAR-3 cells [2] = assay: Cell cycle by EdU flow cytometry (dose, time, washout, tracing); format: cell-based, human; details: 600 nM
Experimental: Cells were plated at 100,000 cells/well in Corning 6 cm tissue culture treated plates. […] Cells were collected and fixed in 1% paraformaldehyde. Cells were incubated with Alexa488 azide dye as described by Thermo Scientific. Cells were then incubated with Fxcycle-violet and RNase. Cells were analyzed on a BD Celesta and data compiled using FloJo and GraphPad.
The OVCAR3 human ovarian carcinoma cell line was grown in RPMI-1640/1× Glutamax/1× Insulin/10% fetal bovine serum and was plated at 300,000 cells/well in Corning 6 cm tissue culture treated plates. […] Cells were treated for the indicated amount of time (24 hours or 48 hours), with 10 μM EdU added for the last hour of treatment. Cells were collected and fixed in 1% paraformaldehyde. Cells were incubated with Alexa 488 (A488) azide dye as described by Thermo Scientific. Cells were then incubated with FarRed dye and RNase. Cells were analyzed on a BD Celesta and data compiled using FloJo and GraphPad Prism (FIG. 13A-B).
The OVCAR3 human ovarian carcinoma cell line was grown in RPMI-1640/1× Glutamax/1× Insulin/10% fetal bovine serum and was plated at 300,000 cells/well in Corning 6 cm tissue culture treated plates. […] At 24 hours, the remaining plates were rinsed with media before un-treated media was added back. Cells were collected at the indicated times, with 10 μM EdU added for the last hour (FIG. 14A). Cells were collected and fixed in 1% paraformaldehyde. Cells were incubated with Pacific blue azide dye as described by Thermo Scientific. Cells were then incubated with FarRed dye and RNase. Cells were analyzed on a BD Celesta and data compiled using FloJo and GraphPad. […] By 18 hours, OVCAR-3 cells were in G2 or reentering G1. Cells appeared to remain somewhat synchronized over 48 hours.
The OVCAR3 human ovarian carcinoma cell line was grown in RPMI-1640/1× Glutamax/1× Insulin/10% fetal bovine serum and was plated at 300,000 cells/well in Corning 6 cm tissue culture treated plates. […] Cells were divided into two sets. The first set was treated for the indicated amount of time, with 10 μM EdU added for the last hour of treatment before being collected. The second set of cells were treated for the indicated amount of time and had EdU added for one hour before the timepoint. Then the media was aspirated, the cells washed, and re-treated with treatment media. The second set of cells was collected at 48 hours, allowing for tracing of the EdU positive cells. Cells were collected and fixed in 1% paraformaldehyde. Cells were incubated with Alexa 488 (A488) azide dye as described by Thermo Scientific. Cells were then incubated with FarRed dye and RNase. Cells were analyzed on a BD Celesta and data compiled using FloJo and GraphPad. […] Several “snap shots” of cells at various timepoints, followed by where the cells from S phase ended up at the end of 48 hours of treatment, were collected. […] It appears that the cells in S phase at after 6 hours of treatment are arresting in G1 (FIG. 15B). At 24 hours of treatment, little to no cells were in S phase so there were no cells to trace (FIG. 15C). Although the DMSO sample appears largely different at 48 hours, the distribution appears similar to the DMSO, EdU free cells at 48 hours. […] (FIG. 15D).

[3] = system: caspase 3/7 in H526 cells; assay: CaspaseGlo-3/7 activation; format: cell-based, human; details: for IC50: Homo sapiens
Experimental: (§2) Plates were removed from incubator and treated with CaspaseGlo-3/7 (Promega, Inc) following manufacturer specifications. Plates were then read on a Biotech luminometer with 1 sec/well integration. Results were converted to Microsoft Excel and transferred to GraphPad Prism for Analysis (FIG. 22D).
as §2, with “from the” for “from”, “incubator at each specified timepoint” for “incubator”, “on” for “on a”, “27A-C).” for “22D).”

## COCc1cc(C(=O)Nc2cc([C@H]3CC[C@@H](OC(=O)NC(C)C)C3)[nH]n2)n(C)n1 [PF-07104091, reference compound]
OVCAR-3 cells [1]
  IC50: 0.294 µM
H526 cells
  IC50: 0.305 µM
FUOV-1 cells
  IC50: 0.08 µM
OVCAR-3 cells [2]
  G1 arrest over 48 h: appears to hold cells in G1 over 48 hours
[3]; 24 hours
  caspase 3/7 activation: no appreciable caspase 3/7 activation
[3]; NCI-H526, 48 h, 48 hours
  IC50: 1.25 µM
[3]; NCI-H526, 72 h, 72 hours
  IC50: 0.495 µM
